From patent publication US20260055117A1, “SUBSTITUTED PYRIDONE GPR84 ANTAGONISTS AND USES THEREOF” (Liminal BioSciences Limited, priority 2022, published 2026)

Molecular target: T1, human GPR84 receptor (Homo sapiens, UniProt Q9NQS5)
T1 construct: host or cells: HEK293, transiently transfected
Experiment: Gαi biosensor BRET assay (GPR84 antagonism vs agonist ZQ-16)
Type: cell-based
Conditions: HEK293 cells, 200 nmol/L agonist ZQ-16; for IC50: Gαi biosensor BRET assay; for inhibition at 2 µM: tested at 2 μM (concentration code A); for inhibition at 10 µM: tested at 10 μM (concentration code D)
Text: Background—The following assays can be used for determination of GPR84 activation in living HEK293 cells. The Gai BRET biosensor (Gagnon et al., 2018; Gales et al., 2006. Nat Struct Mol Biol. 13, 778-86; Saulieres et al., 2012. Nat Chem Biol. 8, 622-30) allows to directly monitor GPR84-mediated activation of Gai. The Gai biosensor consists of a Rluc8-tagged Gai2 subunit, a GFP10-tagged Gy2 subunit, and an untagged GB1. Agonist stimulation and GPR84 activation triggers a physical separation between the RLuc8-Gai donor and the GFP10-Gy2 acceptor, resulting in a decrease in BRET signal whose amplitude is correlated to ligand efficacy (Gales et al., 2006). Moreover, signaling functions of GPCRs are tightly regulated by endocytosis, the targeting of receptors to endosomes and their sorting to lysosomes or recycling to the plasma membrane. The early endosomes (EEs) trafficking assay (Namkung et al., 2016. Nat Commun. 7, 12178) uses Rluc8-tagged GPR84 and Renilla GFP (rGFP) attached to the FYVE domain from human endofin/zinc finger FYVE domain-containing protein 16, which binds phosphatidylinositol 3-phosphate in EEs. Agonist stimulation of GPR84-Rluc8 leads to trafficking of the receptor to EEs, and ensuing increase of the donor concentration relative to the rGFP-FYVE acceptor anchored in the same cellular compartment, and thus results in an increase in BRET signal.
Plasmids—The cDNA clones for human GPR84 receptor, human Gai2, GB1, and Gy2 were obtained from the cDNA Resource Center (www.cdna.org). GFP10 (F64L, S147P, S202F and H231L variant of Aequorea victoria Green Fluorescent Protein) gBlocks gene fragments (Integrated DNA Technologies, IA) and linker were inserted in frame at the N-terminus of human Gy2. Rluc8 (A55T, C124A, S130A, K136R, A143M, M185V, M253L, and S287L variant of the Renilla reniformis luciferase) gBlocks gene fragment was inserted with linkers in frame in between residues 91 and 92 of Gai2 or at the C-terminus of GPR84. The FYVE domain from human endofin (residues Q739 to K806) attached in frame at the C terminus of a humanized Renilla GFP (rGFP), were synthesized as gBlocks gene fragments.
Bioluminescence Resonance Energy Transfer (BRET) Measurement-HEK293 cells were transfected with GPR84-Rluc8 and rGFP-FYVE for the EEs trafficking biosensor or with GPR84, Gai2-Rluc8, GFP10-Gy2, and GB1 for the Ga; biosensor. The following day, transiently transfected cells were seeded in 96-well white clear bottom microplates coated with poly-D-lysine and left in culture for 24 hours. Cells were washed once with Tyrode's buffer (140 mmol/L NaCl, 1 mmol/L CaCl2), 2.7 mmol/L KCl, 0.49 mmol/L MgCl2, 0.37 mmol/L NaH2PO4, 5.6 mmol/L glucose, 12 mmol/L NaHCO3, and 25 mmol/L HEPES, pH 7.5) before performing assays in Tyrode's buffer. Test compounds were incubated with cells for 5 (Gai) or 15 (EEs) minutes at 37° C. before addition of 200 nmol/L of the GPR84 agonist ZQ-16 (2-(Hexylthio)-6-hydroxy-4 (3H)-pyrimidinone) for 5 minutes at room temperature (Gai) or 30 minutes at 37° C. (EEs). The Rluc8 substrate coelenterazine 400A (Prolume, Lakeside, A Z) was added at a final concentration of 5 μmol/L and BRET readings were collected using an Infinite M1000 microplate reader (Tecan, Morrisville, N C). BRET2 readings between Rluc8 and GFP10 or rGFP were collected by sequential integration of the signals detected in the 370 to 450 nm (Rluc8) and 510 to 540 nm (GFP10, rGFP) windows. The BRET signal was calculated as the ratio of light emitted by acceptor (GFP10, rGFP) over the light emitted by donor (Rluc8). The values were corrected to net BRET by subtracting the background BRET signal obtained in cells transfected with Rluc8 constructs alone. Ligand-promoted net BRET values were calculated by subtracting vehicle-induced net BRET from ligand-induced net BRET.

T1 sequence (Q9NQS5 whole entry): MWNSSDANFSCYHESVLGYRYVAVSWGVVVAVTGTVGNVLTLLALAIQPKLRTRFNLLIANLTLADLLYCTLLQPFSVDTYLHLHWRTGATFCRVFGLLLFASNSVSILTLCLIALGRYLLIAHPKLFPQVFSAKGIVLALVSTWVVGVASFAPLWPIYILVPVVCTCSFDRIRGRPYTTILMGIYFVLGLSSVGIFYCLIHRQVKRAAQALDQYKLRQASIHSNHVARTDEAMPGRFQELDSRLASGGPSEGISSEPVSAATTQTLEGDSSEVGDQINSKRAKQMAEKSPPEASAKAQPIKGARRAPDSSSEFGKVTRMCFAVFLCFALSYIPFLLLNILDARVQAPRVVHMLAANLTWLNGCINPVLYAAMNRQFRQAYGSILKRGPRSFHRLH

| IC50 [nM] | inhibition at 2 µM [%] | inhibition at 10 µM [%] | SMILES |
| --- | --- | --- | --- |
| 300 to 1000 | > 75 |  | Cc1cc(OCC(=O)N2CCC[C@H]2C2CC2)cc(=O)n1[C@H](C)c1ccc(C#CC2CC2)cc1 [Compound I-308] |
| 300 to 1000 | > 75 |  | CNS(=O)(=O)[C@H]1CCN(C(=O)COc2cc(C)n([C@H](C)c3ccc(C#CC4CC4)cc3)c(=O)c2)C1 [Compound I-322] |
|  |  | > 75 | Cc1cc(OCC(=O)N2CC[C@H](S(C)(=O)=O)C2)cc(=O)n1[C@H](C)c1ccc(C#CC2CC2)cc1 [Compound I-253] |
| ≤ 300 | > 75 |  | Cc1cc(OCC(=O)N2CCC(F)(F)C2)cc(=O)n1[C@H](C)c1ccc(C#CC2CC2)cc1 [Compound I-257] |
|  |  | 25 to 50 | CC(=O)C(C)(C)Oc1cc(C)n([C@H](C)c2ccc(C#CC3CC3)cc2)c(=O)c1 [Compound I-271] |
|  |  | < 25 | Cc1cc(OCc2ncccn2)cc(=O)n1[C@H](C)c1ccc(/C=C/C2CC2)cc1 [Compound I-149] |
| ≤ 300 | > 75 |  | Cc1cc(OCC(=O)N2CC3CC3C2)cc(=O)n1[C@H](C)c1ccc(C#CC2CC2)cc1 (stereo partly drawn) [Compound I-284] |
|  |  | > 75 | C[C@H](c1ccc(C#CC2CC2)cc1)n1c(CO)cc(OCC(=O)N(C)C)cc1=O [Compound I-287] |
| 300 to 1000 |  | > 75 | Cc1cc(OCC(=O)N2CC(C)(C)C2)cc(=O)n1[C@H](C)c1ccc(C#CC2CC2)cc1 [Compound I-342] |
|  |  | > 75 | Cc1cc(OCS(N)(=O)=O)cc(=O)n1[C@H](C)c1ccc(C#CC2CC2)cc1 [Compound I-48] |
|  |  | 25 to 50 | Cc1cc(OCC2OCCC(C)(C)O2)cc(=O)n1[C@H](C)c1ccc(C#CC2CC2)cc1 (stereo partly drawn) [Compound I-40] |
|  |  | < 25 | Cc1cc(OCc2ncccn2)cc(=O)n1[C@H](C)c1ccc(-c2ccc(C3CC3)cc2)cc1 [Compound I-150] |
| ≤ 300 | > 75 |  | Cc1cc(OCC(=O)N(C)C)cc(=O)n1[C@H](C)c1ccc(C#CC2CC2)c(Br)c1 [Compound I-35] |
| ≤ 300 | > 75 |  | Cc1nnc(COc2cc(C)n([C@H](C)c3ccc(C#CC4CC4)c(F)c3)c(=O)c2)o1 [Compound I-17] |
| 300 to 1000 |  | > 75 | Cc1cc(OCC(O)C(C)(C)C)cc(=O)n1[C@H](C)c1ccc(C#CC2CC2)cc1 (stereo partly drawn) [Compound I-276] |
| ≤ 300 |  | > 75 | Cc1cc(OCC(=O)N2CC3(CCO3)C2)cc(=O)n1[C@H](C)c1ccc(C#CC2CC2)cc1 [Compound I-289] |
| ≤ 300 | > 75 |  | Cc1nc(OCC(=O)N2CCCC2)cc(=O)n1[C@H](C)c1ccc(C#CC2CC2)cc1 [Compound I-235] |
|  |  | 25 to 50 | Cc1cc(OCC2(N(C)C)CC2)cc(=O)n1[C@H](C)c1ccc(C#CC2CC2)c(F)c1 [Compound I-31] |
| ≤ 300 | > 75 |  | Cc1cc(OCC(=O)C(C)C)cc(=O)n1[C@H](C)c1ccc(C#CC2CC2)cc1 [Compound I-270] |
|  |  | > 75 | Cc1noc(COc2cc(C)n([C@H](C)c3ccc(C#CC4CC4)c(F)c3)c(=O)c2)n1 [Compound I-18] |
|  |  | > 75 | Cc1noc(COc2cc(C)n([C@H](C)c3ccc(C#CC4CC4)cc3)c(=O)c2)n1 [Compound I-12] |
|  |  | > 75 | Cc1cc(OCC(=O)N2CCOCC2)cc(=O)n1[C@H](C)c1ccc(C#CC2CC2)c(F)c1 [Compound I-27] |
|  |  | > 75 | Cc1cc(OCc2ncn[nH]2)cc(=O)n1[C@H](C)c1ccc(C#CC2CC2)cc1 [Compound I-328] |

| IC50 [nM] | inhibition at 2 µM [%] | inhibition at 10 µM [%] | SMILES |
| --- | --- | --- | --- |
|  |  | > 75 | Cc1cc(OCC(=O)N2CCC(F)(F)CC2)cc(=O)n1[C@H](C)c1ccc(C#CC2CC2)c(F)c1 [Compound I-26] |
|  |  | > 75 | Cc1nc(OCC(=O)N2CCC[C@H]2C(=O)O)cc(=O)n1[C@H](C)c1ccc(C#CC2CC2)cc1 [Compound I-297] |
|  |  | 50 to 75 | Cc1cc(OCC(=O)N(C)C)cc(=O)n1[C@H](C)c1ccc(C#CC2CC2)cc1Br [Compound I-87] |
|  | > 75 |  | Cc1cc(OCC(=O)N(C)C2CCN(C)CC2)cc(=O)n1[C@H](C)c1ccc(C#CC2CC2)cc1 [Compound I-44] |
| ≤ 300 | > 75 |  | Cc1cc(OCc2ncc(NS(C)(=O)=O)cn2)cc(=O)n1[C@H](C)c1ccc(C#CC2CC2)cc1 [Compound I-11] |
| 1000 to 3000 |  | > 75 | Cc1cc(OCC(=O)N2CC[C@H](S(=O)(=O)N(C)C)C2)cc(=O)n1[C@H](C)c1ccc(C#CC2CC2)cc1 [Compound I-333] |
|  |  | 50 to 75 | Cc1cc(OCC(=O)O)cc(=O)n1[C@H](C)c1ccc(C#CC2CC2)cc1 [Compound I-21] |
|  |  | 25 to 50 | Cc1cc(OCCN2CCCC2)cc(=O)n1[C@H](C)c1ccc(C#CC2CC2)cc1 [Compound I-281] |
|  | < 25 |  | COc1ccc([C@H](C)n2c(C)cc(C#CC3CC3)cc2=O)cc1 [Compound I-239] |
|  | > 75 |  | Cc1cc(OCC(=O)N2CC[C@@H](C3CC3)C2)cc(=O)n1[C@H](C)c1ccc(C#CC2CC2)cc1 [Compound I-311] |
|  |  | 50 to 75 | Cc1cc(OCC(=O)NC2CN(C)C2)cc(=O)n1[C@H](C)c1ccc(C#CC2CC2)cc1 [Compound I-58] |
|  |  | > 75 | Cc1cc(OCS(N)(=O)=O)cc(=O)n1[C@H](C)c1ccc(C#CC2CC2)c(F)c1 [Compound I-46] |
|  |  | 50 to 75 | Cc1cc(OCC(=O)NC2CC(F)(F)C2)cc(=O)n1[C@H](C)c1ccc(C#CC2CC2)cc1 [Compound I-51] |
| 300 to 1000 | > 75 |  | Cc1cc(OCC(=O)N2CC(F)C2)cc(=O)n1[C@H](C)c1ccc(C#CC2CC2)cc1 [Compound I-288] |
|  |  | > 75 | Cc1cc(OCC(O)C(C)C)cc(=O)n1[C@H](C)c1ccc(C#CC2CC2)cc1 (stereo partly drawn) [Compound I-274] |
|  |  | < 25 | Cc1cc(OCC(=O)N(C)C)cc(=O)n1C(C)c1ccncc1 (stereo not drawn) [Compound I-227] |
| ≤ 300 |  | > 75 | CCC#Cc1ccc([C@@H](C)n2c(C)cc(OCC(=O)N(C)C)cc2=O)cc1 [Compound I-28] |
| ≤ 300 | > 75 |  | Cc1cc(OCC(=O)N2CCC(=O)C2)cc(=O)n1[C@H](C)c1ccc(C#CC2CC2)cc1 [Compound I-245] |
| ≤ 300 |  | > 75 | Cc1cc(OCC(=O)N2CC[C@H](C(=O)O)[C@H]2C)cc(=O)n1[C@H](C)c1ccc(C#CC2CC2)cc1 [Compound I-304] |
|  |  | > 75 | Cc1cc(OCC(=O)N(C)C)cc(=O)n1[C@H](C)c1ccc(C#CC2CC2)c(N(C)C)c1 [Compound I-38] |
|  |  | 50 to 75 | Cc1cc(OCc2ncccn2)cc(=O)n1[C@H](C)c1ccc(C#CC2(C(F)(F)F)CC2)c(F)c1 [Compound I-53] |
|  |  | > 75 | COC(COc1cc(C)n([C@H](C)c2ccc(C#CC3CC3)cc2)c(=O)c1)C(C)C (stereo partly drawn) [Compound I-275] |
| ≤ 300 |  | > 75 | Cc1cc(OCC(=O)N(C)C)cc(=O)n1[C@H](C)c1ccc(C#CC2CC2(F)F)cc1 (stereo partly drawn) [Compound I-63] |

| SMILES | IC50 [nM] | inhibition at 2 µM [%] | inhibition at 10 µM [%] |
| --- | --- | --- | --- |
| Cc1cc(OCC(=O)N2CCN(C)CC2)cc(=O)n1[C@H](C)c1ccc(C#CC2CC2)cc1 [Compound I-60] | ≤ 300 |  | > 75 |
